Results on 11 molecules are retold here after ChEMBL document CHEMBL1201862, “PubChem BioAssay data set” (2004).

Assay [1] addresses T1, DNA repair and recombination protein RAD54-like (Homo sapiens, UniProt Q92698).
T1 sequence (Q92698 whole entry): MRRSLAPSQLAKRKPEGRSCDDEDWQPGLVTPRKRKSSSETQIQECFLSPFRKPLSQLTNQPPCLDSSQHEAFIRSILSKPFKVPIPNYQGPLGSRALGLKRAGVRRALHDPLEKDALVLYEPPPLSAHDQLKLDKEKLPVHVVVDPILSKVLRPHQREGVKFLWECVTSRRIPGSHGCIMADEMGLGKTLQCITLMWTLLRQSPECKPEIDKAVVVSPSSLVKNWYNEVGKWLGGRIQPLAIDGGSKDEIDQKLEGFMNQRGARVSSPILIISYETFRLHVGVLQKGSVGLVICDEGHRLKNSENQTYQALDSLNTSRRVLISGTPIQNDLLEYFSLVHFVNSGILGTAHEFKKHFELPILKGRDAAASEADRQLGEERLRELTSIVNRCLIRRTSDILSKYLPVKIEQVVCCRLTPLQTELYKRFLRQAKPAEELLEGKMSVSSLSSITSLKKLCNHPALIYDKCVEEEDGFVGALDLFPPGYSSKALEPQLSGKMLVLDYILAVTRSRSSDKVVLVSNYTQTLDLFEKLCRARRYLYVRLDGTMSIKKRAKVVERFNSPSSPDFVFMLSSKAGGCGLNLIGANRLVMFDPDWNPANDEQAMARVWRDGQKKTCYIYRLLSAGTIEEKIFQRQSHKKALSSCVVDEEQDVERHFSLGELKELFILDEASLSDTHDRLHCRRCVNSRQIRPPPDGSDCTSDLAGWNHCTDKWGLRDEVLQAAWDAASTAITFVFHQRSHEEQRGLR
Kind of assay: inhibitors of human RAD54 branch migration, confirmation, biochemical, fluorescence, cherry-picked samples, dose series (AID 651657). In kind it is functional.

For assay [2], the target named is T2, Sentrin-specific protease 8 (Homo sapiens, UniProt Q96LD8).
T2 sequence (Q96LD8 whole entry): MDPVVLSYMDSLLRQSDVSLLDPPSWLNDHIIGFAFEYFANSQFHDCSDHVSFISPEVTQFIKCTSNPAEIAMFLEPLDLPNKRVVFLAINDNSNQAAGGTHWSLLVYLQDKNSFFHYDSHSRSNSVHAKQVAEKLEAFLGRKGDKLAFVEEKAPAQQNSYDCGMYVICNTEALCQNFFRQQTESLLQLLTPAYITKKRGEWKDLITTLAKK
In kind it is functional.

For assay [3], the target named is T2, Sentrin-specific protease 8. In kind it is functional. The source holds these as a separate data set.
Assay [4] has as its target T3, Replicative DNA helicase DnaB (Mycobacterium tuberculosis, UniProt P9WMR3).
T3 sequence (P9WMR3 whole entry): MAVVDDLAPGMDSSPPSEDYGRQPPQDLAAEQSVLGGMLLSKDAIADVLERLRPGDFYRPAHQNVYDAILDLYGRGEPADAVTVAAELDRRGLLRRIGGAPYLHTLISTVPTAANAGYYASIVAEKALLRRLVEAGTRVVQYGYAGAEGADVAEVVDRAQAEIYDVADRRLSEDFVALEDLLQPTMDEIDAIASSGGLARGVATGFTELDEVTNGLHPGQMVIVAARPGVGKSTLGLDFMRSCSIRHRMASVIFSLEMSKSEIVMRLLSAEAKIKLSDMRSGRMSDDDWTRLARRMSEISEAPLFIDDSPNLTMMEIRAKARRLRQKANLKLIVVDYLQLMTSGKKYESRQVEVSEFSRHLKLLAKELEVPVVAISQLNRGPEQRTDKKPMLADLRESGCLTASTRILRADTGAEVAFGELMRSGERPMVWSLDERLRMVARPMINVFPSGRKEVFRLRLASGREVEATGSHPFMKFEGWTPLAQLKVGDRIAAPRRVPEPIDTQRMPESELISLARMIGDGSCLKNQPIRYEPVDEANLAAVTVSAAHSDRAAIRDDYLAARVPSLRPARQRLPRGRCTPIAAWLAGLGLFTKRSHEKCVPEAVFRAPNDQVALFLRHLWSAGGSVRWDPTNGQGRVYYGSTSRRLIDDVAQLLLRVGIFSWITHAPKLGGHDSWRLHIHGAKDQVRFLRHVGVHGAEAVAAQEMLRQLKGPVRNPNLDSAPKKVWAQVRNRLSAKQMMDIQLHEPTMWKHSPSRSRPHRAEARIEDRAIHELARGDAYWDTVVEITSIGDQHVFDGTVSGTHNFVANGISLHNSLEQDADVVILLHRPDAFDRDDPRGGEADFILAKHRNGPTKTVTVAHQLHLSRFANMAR
The assay can be described thus: DnaB intein splicing inhibitors, dose response, biochemical, cell-free fluorescence (AID 449749). In kind it is functional.

In assay [5] the target is T4, Protein RecA (Mycobacterium tuberculosis, UniProt P9WHJ3).
T4 sequence (P9WHJ3 whole entry): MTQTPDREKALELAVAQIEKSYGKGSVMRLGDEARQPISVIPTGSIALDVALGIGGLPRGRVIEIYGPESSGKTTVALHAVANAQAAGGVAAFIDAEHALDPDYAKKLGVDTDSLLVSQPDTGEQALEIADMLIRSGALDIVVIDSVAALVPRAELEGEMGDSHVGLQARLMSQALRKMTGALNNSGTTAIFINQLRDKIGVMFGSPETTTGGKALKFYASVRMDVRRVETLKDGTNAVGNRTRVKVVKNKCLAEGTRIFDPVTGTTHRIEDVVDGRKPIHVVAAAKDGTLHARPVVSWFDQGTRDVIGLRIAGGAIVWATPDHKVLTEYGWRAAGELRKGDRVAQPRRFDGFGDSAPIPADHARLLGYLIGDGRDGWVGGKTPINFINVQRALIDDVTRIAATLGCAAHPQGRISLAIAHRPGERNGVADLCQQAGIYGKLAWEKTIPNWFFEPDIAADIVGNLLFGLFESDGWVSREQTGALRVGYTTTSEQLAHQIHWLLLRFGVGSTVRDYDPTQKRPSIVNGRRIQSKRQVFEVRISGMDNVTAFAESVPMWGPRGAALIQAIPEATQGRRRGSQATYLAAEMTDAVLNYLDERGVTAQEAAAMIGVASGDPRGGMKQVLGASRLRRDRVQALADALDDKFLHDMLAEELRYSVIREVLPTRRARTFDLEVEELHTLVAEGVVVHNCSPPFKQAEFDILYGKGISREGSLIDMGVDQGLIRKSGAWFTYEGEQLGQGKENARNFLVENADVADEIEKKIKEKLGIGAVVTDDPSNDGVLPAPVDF
The assay can be described thus: Fluorescence Cell-Free Homogeneous Dose Retest to Identify Inhibitors of RecA-Intein Splicing Activity. [Related pubchem assays (depositor defined):AID2097, AID2223, AID489010, AID492950]. In kind it is functional.

Assay [6] has as its target T5, Protein skinhead-1 (Caenorhabditis elegans, UniProt P34707).
T5 sequence (P34707 whole entry): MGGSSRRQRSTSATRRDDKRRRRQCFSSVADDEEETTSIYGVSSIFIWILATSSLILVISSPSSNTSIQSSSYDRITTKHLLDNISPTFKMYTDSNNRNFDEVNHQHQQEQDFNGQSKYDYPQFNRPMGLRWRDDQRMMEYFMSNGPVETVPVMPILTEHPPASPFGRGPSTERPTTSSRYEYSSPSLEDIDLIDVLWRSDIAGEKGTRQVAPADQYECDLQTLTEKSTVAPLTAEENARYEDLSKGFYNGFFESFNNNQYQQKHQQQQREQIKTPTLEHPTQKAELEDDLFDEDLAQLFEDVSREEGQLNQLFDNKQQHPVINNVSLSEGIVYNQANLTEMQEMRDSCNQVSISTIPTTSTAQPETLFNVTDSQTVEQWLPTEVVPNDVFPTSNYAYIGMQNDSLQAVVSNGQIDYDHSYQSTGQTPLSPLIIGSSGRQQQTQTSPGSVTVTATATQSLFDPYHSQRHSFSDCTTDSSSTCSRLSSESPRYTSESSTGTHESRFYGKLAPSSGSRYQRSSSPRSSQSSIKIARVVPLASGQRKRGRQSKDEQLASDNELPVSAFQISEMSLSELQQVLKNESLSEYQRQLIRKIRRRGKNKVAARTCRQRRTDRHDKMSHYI
In kind it is functional.

Assay [7] in a line: growth suppression of PTEN-null colon cells, dose response, cell-based, HCT116 PTEN knockout (AID 1047).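 Further: HCT116 colon tumor cells with PTEN knocked out; cells exposed to compound for 60 hours before readout; potency for loss of cell viability measured by luminescence.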 In kind it is functional.
Assay [8] in a line: growth suppression of beta-catenin-knockout colon cells, dose response, cell-based, HCT116, human colon tumor (AID 1045).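 Further: HCT116 colon tumor cells with beta catenin knocked out; cells exposed to compound for 60 hours.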 In kind it is functional.
Assay [9] addresses T6, Microphthalmia-associated transcription factor (Homo sapiens, UniProt O75030).
T6 sequence (O75030 whole entry): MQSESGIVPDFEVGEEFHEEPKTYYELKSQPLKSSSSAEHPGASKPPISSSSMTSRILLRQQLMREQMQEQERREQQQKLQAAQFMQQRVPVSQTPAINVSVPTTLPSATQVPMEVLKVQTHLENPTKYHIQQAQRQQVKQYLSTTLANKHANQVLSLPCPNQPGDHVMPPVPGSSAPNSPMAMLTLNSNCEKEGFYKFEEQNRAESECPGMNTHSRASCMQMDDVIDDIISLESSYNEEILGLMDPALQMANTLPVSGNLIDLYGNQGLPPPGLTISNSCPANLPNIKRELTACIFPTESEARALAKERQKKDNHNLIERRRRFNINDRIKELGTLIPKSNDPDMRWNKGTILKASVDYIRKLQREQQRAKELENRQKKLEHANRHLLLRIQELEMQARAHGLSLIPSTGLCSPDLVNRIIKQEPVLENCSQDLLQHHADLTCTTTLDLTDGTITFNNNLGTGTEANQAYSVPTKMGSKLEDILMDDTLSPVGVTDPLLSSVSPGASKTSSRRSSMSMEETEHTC
Kind of assay: TRPM1 promoter luciferase signal decrease, dose response, MITF inhibitor project, cell-based, SK-MEL-5, cherry-picked, set 3 (AID 493073).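 Further: SK-MEL-5 melanoma cells with luciferase driven by the MITF target TRPM1 promoter.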 In kind it is functional.

A short description of assay [10]: A549 cell cytotoxicity, dose response, cytotoxicity control, plate reader, cherry-pick, antagonist series (AID 743412). In kind it is functional, cell-based.
The nature of assay [11]: HepG2 cell cytotoxicity, dose response, cytotoxicity control, plate reader, cherry-pick, antagonist series (AID 743416). In kind it is functional, cell-based.
The nature of assay [12]: LGR2 antagonists, dose response, cell-based, HEK293, CRE-luciferase reporter, cherry pick, set 2 (AID 743343).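 Further: transfected cells were stimulated with diluted bursicon conditioned medium after compound addition.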 In kind it is functional.
Assay [13] in a line: MC4R antagonists, dose response, counter-screen for LGR2 antagonist project, cell-based, plate reader, cherry pick (AID 743444).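 Further: transfected HEK 293 cells stimulated with alpha-MSH peptide; potency of inhibitors of the alpha-MSH evoked signal.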 In kind it is functional.
Assay [14] can be described thus: HEK293 cell cytotoxicity, dose response, cytotoxicity control, plate reader, cherry-picked samples (AID 743446). In kind it is functional, cell-based.

Activity calls are given as the source filed them.

As for `CCN(CC)CCn1c2ccc(F)cc2c2nc(C)sc21`, in assay [1], the AC50 was 20.9 µM (active).
Consider `COC/C=C/C1=CC2=CC(=O)C(C)(OC(=O)c3cnc4ccccc4n3)C(=O)C2=CN1CCCCO` (centres undefined), for which the IC50 in assay [2] is 17.6 µM (active); in [3], 6.81 µM (active).
With `Cc1n[nH]c(O)c1C(c1cc(Br)ccc1O)c1c(C)n[nH]c1O`, the AC50 in assay [4] is 0.347 µM (active). Also, the EC50 in assay [5] is 0.275 µM (active). Moreover, the IC50 in assay [2] is 23 µM (active); in assay [3] it was 34 µM (active).
With `CC1(OC(=O)CCc2ccccc2)C(=O)C=C2C=C3CCCN3C=C2C1=O` (centres undefined), the IC50 in assay [2] is 18.1 µM (active); in assay [3], 12.1 µM (active).
On to `COC(=O)CCCC1=CC2=CC(=O)C(C)(OC(=O)c3cccs3)C(=O)C2=CN1CC(C)C` (centres undefined), for which the IC50 in assay [6] was > 100 µM (inactive); in [2], 11.1 µM (active); in assay [3], 7.62 µM (active).
For the molecule `CCN(CC)CCCNc1nc2cc(OC)c(OC)cc2c2nc(-c3cccnc3)nn12`, the results for the EC50 in assay [7] and in [8] were 8.62 µM (active) and 7.33 µM (active), respectively. Further, the AC50 in [1] was 2.15 µM (active).
On to `Cn1c(=O)c([N+](=O)[O-])c(-n2ccnc2)c2ccccc21`, for which the AC50 in [9] was 6.6 µM (active); in [4], 6.67 µM (active). In addition, the EC50 in [5] is 6.43 µM (active).
In the case of `Cn1c2ccc(F)cc2c2ncn(CCCN(CCO)CCO)c(=O)c21`, the AC50 in assay [1] is 28 µM (active).
Regarding `O=[N+]([O-])c1ccc(C=NN2CCOCC2)s1`, the half-maximal inhibitory concentration (IC50) in [2] is 31.9 µM (active); in assay [3] it was 49 µM (active).
Turning to `C[C@@H]1CN([C@H](C)CO)C(=O)c2cccc(NC(=O)Nc3ccc(C(F)(F)F)cc3)c2O[C@@H]1CN(C)CC1CCCCC1`, the AC50 in [10] was 7.8 µM (active); in assay [11], 9.17 µM (active); in [12] it was 21.7 µM (active); in assay [13], 7.5 µM (active); in assay [14] it was 14 µM (active).
Consider `C[C@@H]1CN([C@H](C)CO)C(=O)Cc2cc(NC(=O)CCC(F)(F)F)ccc2O[C@@H]1CN(C)CC1CCCCC1`, for which the AC50 in [10] is 47.9 µM (active); in assay [11] it was > 52 µM (inactive); in [14], > 52 µM (inactive).
